Where two headings read alike, the source gives them in different places.
How the values were obtained:
[1] = in vitro; conditions: African green monkey
[2] = system: VSV-S (pseudotyped VSV carrying the S protein of Wuhan-Hu-1 SARS-CoV-2); experiment: microbe, parasite or virus in culture; format: cell-based; conditions: Vesicular stomatitis virus, read-out: IC50 (concentration at which virus infection is reduced by 50%), VSV-S in A549-ACE2-TMPRSS2 cells
[3] = in vitro; conditions: human
[4] = system: VSV-S (pseudotyped VSV carrying the S protein of Wuhan-Hu-1 SARS-CoV-2); experiment: microbe, parasite or virus in culture; format: cell-based
[5] = Vesicular stomatitis virus, Vero C1008, read-out: IC50 (concentration at which virus infection is reduced by 50%), VSV-S in Vero E6 cells
[6] = read-out: IC50 (concentration at which virus infection is reduced by 50%), VSV-S in Vero E6 cells

SMILES | CC50 [1] [µM] | IC50 [2] [µM] | CC50 [3] [µM] | primary HTS screening result (in words) [4] | IC50 [4, 5] [µM] | IC50 [4, 6] [µM] | antiviral activity in the VSV-S assay (in words) [4]
O=C(CCOCC(COCCC(=O)NC(Cc1c(Sc2ccc([N+](=O)[O-])cc2)[nH]c2ccccc12)C(=O)O)(COCCC(=O)NC(Cc1c(Sc2ccc([N+](=O)[O-])cc2)[nH]c2ccccc12)C(=O)O)COCCC(=O)NC(Cc1c(Sc2ccc([N+](=O)[O-])cc2)[nH]c2ccccc12)C(=O)O)NC(Cc1c(Sc2ccc([N+](=O)[O-])cc2)[nH]c2ccccc12)C(=O)O (stereo not shown) [Compound 1] | > 100 | 18.5 ± 3.5 | > 100 | significant antiviral activity in the absence of cytotoxicity | 21.4 ± 9.45 | 21.4 ± 9.5 | –
O=C(CCC(CCC(=O)NC(Cc1c(Sc2ccc([N+](=O)[O-])cc2)[nH]c2ccccc12)C(=O)O)(CCC(=O)NC(Cc1c(Sc2ccc([N+](=O)[O-])cc2)[nH]c2ccccc12)C(=O)O)[N+](=O)[O-])NC(Cc1c(Sc2ccc([N+](=O)[O-])cc2)[nH]c2ccccc12)C(=O)O (stereo not shown) [Compound 3] | > 100 | – | – | effective | 32.9 ± 4.48 | 32.9 ± 4.5 | –
NCC(=O)NC(CCC(=O)NC(Cc1c(Sc2ccccc2[N+](=O)[O-])[nH]c2ccccc12)C(=O)O)(CCC(=O)NC(Cc1c(Sc2ccccc2[N+](=O)[O-])[nH]c2ccccc12)C(=O)O)CCC(=O)NC(Cc1c(Sc2ccccc2[N+](=O)[O-])[nH]c2ccccc12)C(=O)O (stereo not shown) [Compound 36] | – | – | – | – | > 100 | – | –
NCC(=O)NC(CCC(=O)NC(Cc1c(Sc2cccc([N+](=O)[O-])c2)[nH]c2ccccc12)C(=O)O)(CCC(=O)NC(Cc1c(Sc2cccc([N+](=O)[O-])c2)[nH]c2ccccc12)C(=O)O)CCC(=O)NC(Cc1c(Sc2cccc([N+](=O)[O-])c2)[nH]c2ccccc12)C(=O)O (stereo not shown) [Compound 37] | > 100 | 8.6 ± 4.7 | > 100 | – | 37.1 ± 15.9 | – | –
N#Cc1ccc(Sc2[nH]c3ccccc3c2CC(NC(=O)CCC(CCC(=O)NC(Cc2c(Sc3ccc(C#N)cc3)[nH]c3ccccc23)C(=O)O)(CCC(=O)NC(Cc2c(Sc3ccc(C#N)cc3)[nH]c3ccccc23)C(=O)O)NC(=O)CN)C(=O)O)cc1 (stereo not shown) [Compound 39] | > 100 | 34.9 ± 8.7 | > 100 | – | 33.6 ± 7.2 | – | –
NCC(=O)NC(CCC(=O)NC(Cc1c(Sc2ccc(F)cc2)[nH]c2ccccc12)C(=O)O)(CCC(=O)NC(Cc1c(Sc2ccc(F)cc2)[nH]c2ccccc12)C(=O)O)CCC(=O)NC(Cc1c(Sc2ccc(F)cc2)[nH]c2ccccc12)C(=O)O (stereo not shown) [Compound 40] | > 100 | 46.9 ± 17.5 | > 100 | – | 33 ± 1.3 | – | –
NCC(=O)NC(CCC(=O)NC(Cc1c(-c2ccc([N+](=O)[O-])cc2)[nH]c2ccccc12)C(=O)O)(CCC(=O)NC(Cc1c(-c2ccc([N+](=O)[O-])cc2)[nH]c2ccccc12)C(=O)O)CCC(=O)NC(Cc1c(-c2ccc([N+](=O)[O-])cc2)[nH]c2ccccc12)C(=O)O (stereo not shown) [Compound 46] | – | – | – | – | > 50 | – | antiviral activity is also lost
NCC(=O)NC(CCC(=O)NC(Cc1c(C(=O)c2ccc([N+](=O)[O-])cc2)[nH]c2ccccc12)C(=O)O)(CCC(=O)NC(Cc1c(C(=O)c2ccc([N+](=O)[O-])cc2)[nH]c2ccccc12)C(=O)O)CCC(=O)NC(Cc1c(C(=O)c2ccc([N+](=O)[O-])cc2)[nH]c2ccccc12)C(=O)O (stereo not shown) [Compound 50] | – | – | – | – | > 50 | – | antiviral activity is also lost
CCCCCC(=O)NCC(=O)NC(CCC(=O)NC(Cc1c(Sc2ccc([N+](=O)[O-])cc2)[nH]c2ccccc12)C(=O)O)(CCC(=O)NC(Cc1c(Sc2ccc([N+](=O)[O-])cc2)[nH]c2ccccc12)C(=O)O)CCC(=O)NC(Cc1c(Sc2ccc([N+](=O)[O-])cc2)[nH]c2ccccc12)C(=O)O (stereo not shown) [Compound 56] | > 100 | 8.3 ± 1.1 | > 100 | – | 18.9 ± 6.8 | – | –
